Results taken from patent US20190284136A1, “INDOLINE DERIVATIVES” (ViiV HEALTHCARE UK LIMITED, priority 2016, published 2019).

tested on: HIV; test: Table 1 IC50 of the examples (assay method not given; patent concerns inhibiting HIV replication); type: cell-based; settings: Human immunodeficiency virus 1

Row | Structure (SMILES) | IC50 [µM]
1 | Cc1ccc(-c2c3c(cc(C)c2[C@H](OC(C)(C)C)C(=O)O)N(C(=O)c2ccncc2)CC3)cc1 [Example 40, (S)-2-(tert-Butoxy)-2-(1-isonicotinoyl-6-methyl-4-(p-tolyl)indolin-5-yl)acetic acid] | 0.283
2 | Cc1ccc(-c2c3c(cc(C)c2[C@H](OC(C)(C)C)C(=O)O)N(C(=O)C2CCCCC2)CC3)cc1 [Example 41, (S)-2-(tert-Butoxy)-2-(1-(cyclohexanecarbonyl)-6-methyl-4-(p-tolyl)indolin-5-yl)acetic acid] | 0.017
3 | Cc1ccc(-c2c3c(cc(C)c2[C@H](OC(C)(C)C)C(=O)O)N(C(=O)c2ccc(F)c(F)c2)CC3)cc1 [Example 42, (S)-2-(tert-Butoxy)-2-(1-(3,4-difluorobenzoyl)-6-methyl-4-(p-tolyl)indolin-5-yl)acetic acid] | 0.005
4 | Cc1ccc(-c2c3c(cc(C)c2[C@H](OC(C)(C)C)C(=O)O)N(C(=O)c2cccc(F)c2F)CC3)cc1 [Example 43, (S)-2-(tert-Butoxy)-2-(1-(2,3-difluorobenzoyl)-6-methyl-4-(p-tolyl)indolin-5-yl)acetic acid] | 0.01
5 | Cc1ccc(-c2c3c(cc(C)c2[C@H](OC(C)(C)C)C(=O)O)N(C(=O)c2ccc(F)cc2C)CC3)cc1 [Example 44, (S)-2-(tert-Butoxy)-2-(1-(4-fluoro-2-methylbenzoyl)-6-methyl-4-(p-tolyl)indolin-5-yl)acetic acid] | 0.006
6 | COc1cc(C(=O)N2CCc3c2cc(C)c([C@H](OC(C)(C)C)C(=O)O)c3-c2cc(F)c3c(c2C)CCCO3)ccc1C [Example 71, (S)-2-(tert-Butoxy)-2-((R)-4-(8-fluoro-5-methylchroman-6-yl)-1-(3-methoxy-4-methylbenzoyl)-6-methylindolin-5-yl)acetic acid] | 0.004
7 | Cc1cc2c(c(-c3cc(F)c4c(c3C)CCCO4)c1[C@H](OC(C)(C)C)C(=O)O)CCN2C(=O)C1CCCc2ccccc21 (stereo partly drawn) [Example 105, (2S)-2-(tert-Butoxy)-2-((4R)-4-(8-fluoro-5-methylchroman-6-yl)-6-methyl-1-(1,2,3,4-tetrahydronaphthalene-1-carbonyl)indolin-5-yl)acetic acid] | 0.021
8 | Cc1cc2c(c(-c3cc(F)c4c(c3C)CCCO4)c1[C@H](OC(C)(C)C)C(=O)O)CCN2C(=O)C1CCOC1 (stereo partly drawn) [Example 134, (2S)-2-(tert-Butoxy)-2-((4R)-4-(8-fluoro-5-methylchroman-6-yl)-6-methyl-1-(tetrahydrofuran-3-carbonyl)indolin-5-yl)acetic acid] | 0.453
9 | Cc1cc2c(c(-c3cc(F)c4c(c3C)CCCO4)c1[C@H](OC(C)(C)C)C(=O)O)CCN2C(=O)c1cc(F)cc(C(F)(F)F)c1 [Example 143, (S)-2-(tert-Butoxy)-2-((R)-1-(3-fluoro-5-(trifluoromethyl)benzoyl)-4-(8-fluoro-5-methylchroman-6-yl)-6-methylindolin-5-yl)acetic acid] | 0.014
10 | COc1cncc(C(=O)N2CCc3c2cc(C)c([C@H](OC(C)(C)C)C(=O)O)c3-c2cc(F)c3c(c2C)CCCO3)c1 [Example 151, (2S)-2-(tert-Butoxy)-2-(4-(8-fluoro-5-methylchroman-6-yl)-1-(5-methoxynicotinoyl)-6-methylindolin-5-yl)acetic acid] | 0.017
11 | COc1cc(F)cc(C(=O)N2CCc3c2cc(C)c([C@H](OC(C)(C)C)C(=O)O)c3-c2cc(F)c3c(c2C)CCCO3)c1 [Example 158, (S)-2-(tert-Butoxy)-2-((R)-1-(3-fluoro-5-methoxybenzoyl)-4-(8-fluoro-5-methylchroman-6-yl)-6-methylindolin-5-yl) acetic acid] | 0.003
12 | COc1ccc(C(=O)n2ccc3c(-c4cc(F)c5c(c4C)CCCO5)c([C@H](OC(C)(C)C)C(=O)O)c(C)cc32)cc1C [Example 202, (S)-2-(tert-Butoxy)-2-((R)-4-(8-Fluoro-5-methylchroman-6-yl)-1-(4-methoxy-3-methylbenzoyl)-6-methyl-1H-indol-5-yl)acetic acid] | 0.093
13 | Cc1ccc(-c2c3c(cc(C)c2C(OC(C)(C)C)C(=O)O)N(CC(=O)c2ccccc2)CCC3)cc1 (centres unmarked) [Example 207, 2-(tert-Butoxy)-2-(7-methyl-1-(2-oxo-2-phenylethyl)-5-(p-tolyl)-1,2,3,4-tetrahydroquinolin-6-yl)acetic acid] | 3.5
14 | Cc1ccc(-c2c3c(cc(C)c2C(OC(C)(C)C)C(=O)O)N(C(=O)OCc2ccccc2)CCC3)cc1 (centres unmarked) [Example 208, 2-(1-((Benzyloxy)carbonyl)-7-methyl-5-(p-tolyl)-1,2,3,4-tetrahydroquinolin-6-yl)-2-(tert-butoxy)acetic acid] | 1.12
15 | COC(=O)c1cccc(CN2CCCc3c2cc(C)c(C(OC(C)(C)C)C(=O)O)c3-c2ccc(C)cc2)c1 (centres unmarked) [Example 209, 2-(tert-Butoxy)-2-(1-(3-(methoxycarbonyl)benzyl)-7-methyl-5-(p-tolyl)-1,2,3,4-tetrahydroquinolin-6-yl)acetic acid] | 1.34
16 | CCCNC(=O)N1CCCc2c1cc(C)c(C(OC(C)(C)C)C(=O)O)c2-c1ccc(C)cc1 (centres unmarked) [Example 210, 2-(tert-Butoxy)-2-(7-methyl-1-(propylcarbamoyl)-5-(p-tolyl)-1,2,3,4-tetrahydroquinolin-6-yl)acetic acid] | 4.29
17 | Cc1ccc(-c2c3c(cc(C)c2C(OC(C)(C)C)C(=O)O)N(c2ccccc2)CCC3)cc1 (centres unmarked) [Example 211, 2-(tert-Butoxy)-2-(7-methyl-1-phenyl-5-(p-tolyl)-1,2,3,4-tetrahydroquinolin-6-yl)acetic acid] | 10.4
18 | Cc1ccc(-c2c3c(cc(C)c2C(OC(C)(C)C)C(=O)O)N(Cc2ccc(F)c(F)c2)CCC3)cc1 (centres unmarked) [Example 212, 2-(tert-Butoxy)-2-(1-(3,4-difluorobenzyl)-7-methyl-5-(p-tolyl)-1,2,3,4-tetrahydroquinolin-6-yl)acetic acid] | 1.03
19 | Cc1ccc(-c2c3c(cc(C)c2C(OC(C)(C)C)C(=O)O)N(S(=O)(=O)N2CCCCC2)CCC3)cc1 (centres unmarked) [Example 213, 2-(tert-Butoxy)-2-(7-methyl-1-(piperidin-1-ylsulfonyl)-5-(p-tolyl)-1,2,3,4-tetrahydroquinolin-6-yl)acetic acid] | 3.41
20 | Cc1ccc(-c2c3c(cc(C)c2C(OC(C)(C)C)C(=O)O)N(C(=O)c2cccc(F)c2)CCC3)cc1 (centres unmarked) [Example 214, 2-(tert-Butoxy)-2-(1-(3-fluorobenzoyl)-7-methyl-5-(p-tolyl)-1,2,3,4-tetrahydroquinolin-6-yl)acetic acid] | 3.56
